Data published in ChEMBL document CHEMBL5226286, “The application of isatin-based multicomponent-reactions in the quest for new bioactive and druglike molecules” (Eur J Med Chem, 2021).
In brackets after ≈: the same amount, converted by molar mass. Blank lines part the entries; values can stand above or below the compound they belong to. Activity calls are given as the source filed them. The rule behind the calls is not given here.

How the values were obtained:
[1] = biological target: T1, NAD-dependent protein deacetylase sirtuin-2 (Homo sapiens, UniProt Q8IXJ6); experiment: Inhibition of sirtuin 2 (unknown origin)
T1 sequence (Q8IXJ6 whole entry): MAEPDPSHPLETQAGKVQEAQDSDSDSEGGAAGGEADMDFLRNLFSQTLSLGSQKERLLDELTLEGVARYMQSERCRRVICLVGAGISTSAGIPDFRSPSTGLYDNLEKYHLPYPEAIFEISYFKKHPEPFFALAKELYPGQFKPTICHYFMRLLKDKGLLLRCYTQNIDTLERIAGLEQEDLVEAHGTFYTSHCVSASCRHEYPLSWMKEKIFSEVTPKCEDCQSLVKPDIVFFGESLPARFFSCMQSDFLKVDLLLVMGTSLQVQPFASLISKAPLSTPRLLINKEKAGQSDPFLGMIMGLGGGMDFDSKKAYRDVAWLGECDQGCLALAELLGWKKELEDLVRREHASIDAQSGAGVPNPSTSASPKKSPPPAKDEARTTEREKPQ

cells = assay type: functional, cell-based; settings: Homo sapiens, HCCC9810
Huh-7 = experiment: cells; assay type: functional, cell-based; settings: Homo sapiens
A549 [2] = experiment: Cytotoxicity against human A549 cells; assay type: functional, cell-based
MCF7 [3] = experiment: Cytotoxicity against human MCF7 cells; assay type: functional, cell-based
HeLa [4] = experiment: Cytotoxicity against human HeLa cells; assay type: functional, cell-based
HCT-116 [5] = experiment: Cytotoxicity against human HCT-116 cells; assay type: functional, cell-based
SK-N-SH = experiment: Antiproliferative activity against human SK-N-SH cells by MTT reduction assay; assay type: functional, cell-based
HepG2 [6] = experiment: Antiproliferative activity against human HepG2 cells by MTT reduction assay; assay type: functional, cell-based
MDA-MB-435 = experiment: Antiproliferative activity against human MDA-MB-435 cells; assay type: functional, cell-based
HeLa [7] = experiment: Growth inhibition of human HeLa cells at 20 micromol relative to control; assay type: functional; settings: dose 20 µmol
HepG2 [8] = experiment: Growth inhibition of human HepG2 cells at 20 micromol relative to control; assay type: functional; settings: dose 20 µmol
MDA-MB-231 = experiment: Growth inhibition of human MDA-MB-231 cells at 20 micromol relative to control; assay type: functional; settings: dose 20 µmol
DU-145 = experiment: Cytotoxicity against human DU-145 cells incubated for 48 hrs by MTT assay; assay type: functional, cell-based; settings: DU-145, 48 h
HepG2 [9] = experiment: cells; assay type: functional, cell-based; settings: Homo sapiens
HCT-116 [10] = experiment: Antiproliferative activity against human HCT-116 cells; assay type: functional, cell-based
PC-3 = experiment: Antiproliferative activity against human PC-3 cells; assay type: functional, cell-based
A549 [11] = experiment: Antiproliferative activity against human A549 cells by MTT reduction assay; assay type: functional, cell-based
HeLa [12] = experiment: Cytotoxicity against human HeLa cells incubated for 24 hrs by MTT reduction assay; assay type: functional, cell-based
MCF7 [13] = experiment: Antiproliferative activity against human MCF7 cells by MTT reduction assay; assay type: functional, cell-based
CCRF-CEM = experiment: Antiproliferative activity against human CCRF-CEM cells; assay type: functional, cell-based
SK-OV-3 = experiment: Antiproliferative activity against human SK-OV-3 cells; assay type: functional, cell-based
Bacillus subtilis [14] = experiment: Antibacterial activity against Bacillus subtilis ATCC 465; assay type: functional
Bacillus pumilus = experiment: Antibacterial activity against Bacillus pumilus PTCC 1114; assay type: functional
Micrococcus luteus = experiment: Antibacterial activity against Micrococcus luteus PTCC 1110; assay type: functional
Streptococcus mutans = experiment: Antibacterial activity against Streptococcus mutans PTCC 1601; assay type: functional
[15] = tested on: Staphylococcus epidermidis; experiment: Antibacterial activity against Staphylococcus epidermidis ATCC 12228; assay type: functional
Staphylococcus aureus [16] = experiment: Antibacterial activity against Staphylococcus aureus ATCC 25923; assay type: functional
Enterococcus faecalis = experiment: Antibacterial activity against Enterococcus faecalis ATCC 29737; assay type: functional
Bacillus subtilis [17] = experiment: Antibacterial activity against Bacillus subtilis MTCC 441; assay type: functional
Staphylococcus aureus [18] = experiment: Antibacterial activity against Staphylococcus aureus MTCC 96; assay type: functional
Escherichia coli [19] = experiment: Antibacterial activity against Escherichia coli MTCC 1689; assay type: functional
Proteus mirabilis = experiment: Antibacterial activity against Proteus mirabilis; assay type: functional
Klebsiella pneumoniae = experiment: Antibacterial activity against Klebsiella pneumoniae ATCC 29655; assay type: functional
HeLa [20] = experiment: Anticancer activity against human HeLa cells by MTT assay; assay type: functional, cell-based
Escherichia coli [21] = experiment: Antibacterial activity against Escherichia coli assessed as zone of inhibition; assay type: functional
Escherichia coli [22] = experiment: Antibacterial activity against Escherichia coli NCIM 2688 measured after 8 hrs; assay type: functional
Pseudomonas aeruginosa [23] = experiment: Antibacterial activity against Pseudomonas aeruginosa NCIM […] measured after 8 hrs; assay type: functional
Bacillus subtilis [24] = experiment: Antibacterial activity against Bacillus subtilis NCIM 2079 measured after 12 hrs; assay type: functional
Staphylococcus aureus [25] = experiment: Antibacterial activity against Staphylococcus aureus NCIM 2010 measured after 12 hrs; assay type: functional
Streptococcus pneumoniae = experiment: Antibacterial activity against Streptococcus pneumoniae incubated for 24 to 48 hrs by agar diffusion well method; assay type: functional; settings: time 24-48 hrs
Bacillus subtilis [26] = experiment: Antibacterial activity against Bacillus subtilis incubated for 24 to 48 hrs by agar diffusion well method; assay type: functional; settings: time 24-48 hrs
Pseudomonas aeruginosa [27] = experiment: Antibacterial activity against Pseudomonas aeruginosa incubated for 24 to 48 hrs by agar diffusion well method; assay type: functional; settings: time 24-48 hrs
Escherichia coli [28] = experiment: Antibacterial activity against Escherichia coli incubated for 24 to 48 hrs by agar diffusion well method; assay type: functional; settings: time 24-48 hrs
Pseudomonas aeruginosa [29] = experiment: Antibacterial activity against Pseudomonas aeruginosa RCMB 010043 incubated for 24 hrs by agar well diffusion method; assay type: functional
Escherichia coli [30] = experiment: Antibacterial activity against Escherichia coli RCMB 01100052 incubated for 24 hrs by agar well diffusion method; assay type: functional
Staphylococcus aureus [31] = experiment: Antibacterial activity against Staphylococcus aureus assessed as zone of inhibition; assay type: functional
Staphylococcus aureus [32] = experiment: Antibacterial activity against Staphylococcus aureus by disc diffusion method; assay type: functional
Bacillus subtilis [33] = experiment: Antibacterial activity against Bacillus subtilis by disc diffusion method; assay type: functional
Escherichia coli [34] = experiment: Antibacterial activity against Escherichia coli by disc diffusion method; assay type: functional
Pseudomonas aeruginosa [35] = experiment: Antibacterial activity against Pseudomonas aeruginosa by disc diffusion method; assay type: functional

SMILES: CCOC(=O)C1=C(N)Oc2cc(C)oc(=O)c2C12C(=O)N(Cc1ccccc1)c1ccccc12 (centres undefined)
- IC50 [1]: 126 µM

SMILES: CCOC(=O)C1=C(N)Oc2c(c(=O)oc3cc(Cl)ccc23)C12C(=O)Nc1ccc(C)cc12 (centres undefined)
- IC50 [1]: 118 µM

SMILES: CCOC(=O)C1=C(N)Oc2cc(C)oc(=O)c2C12C(=O)Nc1ccc(Br)cc12 (centres undefined)
- IC50 [1]: 124 µM

SMILES: CCOC(=O)C1=C(C(=O)OCC)C2(NC1CC(C)C)C(=O)Nc1ccccc12 (centres undefined)
- IC50 (A549 [2]): 4.5 µM
- IC50 (MCF7 [3]): 5 µM
- IC50 (HeLa [4]): > 50 µM

SMILES: O=C(c1c(O)c2ccccc2[nH]c1=O)[C@@H]1[C@@H](c2ccccc2Cl)C(c2ccccc2)N[C@@]12C(=O)Nc1ccccc12 (some centres undefined)
- IC50 (HCT-116 [5]): 7.1 µM

SMILES: O=C(c1c[nH]c2ccccc12)[C@@H]1[C@@H](c2ccc(Cl)cc2Cl)[C@@H]2CSCN2[C@@]12C(=O)Nc1ccccc12
- IC50 (HepG2 [9]): 7 µM
- IC50 (HCT-116 [10]): 9 µM
- IC50 (PC-3): 6 µM

SMILES: CN(C)[C@@H]1C(O)=C(C(N)=O)C(=O)[C@@]2(O)C(O)=C3C(=O)c4c(O)cccc4[C@@](C)(O)[C@H]3C[C@@H]12 [TETRACYCLINE]
- MIC (Bacillus subtilis [14]): 4 µg/mL (≈ 9 µM)
- MIC (Bacillus pumilus): 8 µg/mL (≈ 18 µM)
- MIC (Micrococcus luteus): 4 µg/mL (≈ 9 µM)
- MIC (Streptococcus mutans): 2 µg/mL (≈ 4.5 µM)
- MIC [15]: < 2 µg/mL
- MIC (Staphylococcus aureus [16]): 4 µg/mL (≈ 9 µM)
- MIC (Enterococcus faecalis): 8 µg/mL (≈ 18 µM)
- MIC (Bacillus subtilis [17]): 10 µg/mL (≈ 22.5 µM)
- MIC (Staphylococcus aureus [18]): 5 µg/mL (≈ 11.3 µM)
- MIC (Escherichia coli [19]): 10 µg/mL (≈ 22.5 µM)
- MIC (Proteus mirabilis): 15 µg/mL (≈ 33.8 µM)
- MIC (Klebsiella pneumoniae): 16 µg/mL (≈ 36 µM)

SMILES: CC1(C)S[C@@H]2[C@H](NC(=O)[C@H](N)c3ccccc3)C(=O)N2[C@H]1C(=O)O [AMPICILLIN]
- diameter of the inhibition zone (DIZ) (Escherichia coli [21]): 6 mm
- MIC90 (Escherichia coli [22]): 1.46 µg/mL (≈ 4.18 µM)
- MIC90 (Pseudomonas aeruginosa [23]): 4.36 µg/mL (≈ 12.5 µM)
- MIC90 (Bacillus subtilis [24]): 10.3 µg/mL (≈ 29.5 µM)
- MIC90 (Staphylococcus aureus [25]): 1 µg/mL (≈ 2.86 µM)
- MIC (Streptococcus pneumoniae): 0.015 µg/mL (≈ 0.0429 µM)
- MIC (Bacillus subtilis [26]): 0.007 µg/mL (≈ 0.02 µM)
- MIC (Pseudomonas aeruginosa [27]): inactive
- MIC (Escherichia coli [28]): inactive
- MIC (Pseudomonas aeruginosa [29]): inactive
- MIC (Escherichia coli [30]): inactive
- diameter of the inhibition zone (DIZ) (Staphylococcus aureus [31]): 6 mm
- MIC (Staphylococcus aureus [32]): 250 µg/mL (≈ 715 µM)
- MIC (Bacillus subtilis [33]): 250 µg/mL (≈ 715 µM)
- MIC (Escherichia coli [34]): 100 µg/mL (≈ 286 µM)
- MIC (Pseudomonas aeruginosa [35]): 100 µg/mL (≈ 286 µM)

Second part, led by results:

- IC50 (cells): > 10 µM
- IC50 (Huh-7): 7.1 µM
SMILES: CNC(=O)c1cc(Oc2ccc(NC(=O)Nc3ccc(Cl)c(C(F)(F)F)c3)cc2)ccn1 [SORAFENIB]

- IC50 (SK-N-SH): 6.3 µM
- IC50 (HepG2 [6]): 5.4 µM
- IC50 (MDA-MB-435): 0.09 µM
SMILES: COc1cccc2c1C(=O)c1c(O)c3c(c(O)c1C2=O)C[C@@](O)(C(=O)CO)C[C@@H]3O[C@H]1C[C@H](N)[C@H](O)[C@H](C)O1 [DOXORUBICIN]
- IC50 (HCT-116 [5]): 2.4 µM
- growth inhibition (GI) (HeLa [7]): 76.1%
- growth inhibition (GI) (HepG2 [8]): 79.1%
- growth inhibition (GI) (MDA-MB-231): 76%
- IC50 (DU-145): 1.8 µM

- IC50 (A549 [11]): 15.9 µM
- IC50 (SK-N-SH): 5 µM
- IC50 (HepG2 [6]): 8.7 µM
- IC50 (MCF7 [13]): 8.3 µM
SMILES: Cc1cc2c(cc1C)C(Cl)=C(C1C3CCCN3C3(C(=O)Nc4ccc(I)cc43)C1C(=O)c1ccccc1)CCC2 (centres undefined)
- IC50 (HeLa [12]): 3.8 µM

- IC50 (CCRF-CEM): 25.2 µM
- IC50 (SK-OV-3): 38.9 µM
SMILES: O=C1/C(=C/c2ccccc2)CNC[C@]12[C@@H](c1ccccc1)C1CCCN1[C@]21C(=O)Nc2ccccc21 (some centres undefined)

- IC50 (A549 [11]): 5.6 µM
- IC50 (SK-N-SH): 11 µM
- IC50 (HepG2 [6]): 20 µM
- IC50 (MCF7 [13]): 7.3 µM
SMILES: Cc1cc2c(cc1C)C(Cl)=C(C1C3CCCN3C3(C(=O)Nc4ccc([N+](=O)[O-])cc43)C1C(=O)c1ccccc1)CCC2 (centres undefined)
- IC50 (HeLa [12]): 3.8 µM

- IC50 (HeLa [20]): 10.7 µM
SMILES: CN1C[C@@H](c2ccccc2Cl)[C@H](C(=O)c2c(O)c3ccccc3[nH]c2=O)[C@@]12C(=O)Nc1ccccc12

- IC50 (HepG2 [9]): 5.5 µM
- IC50 (HCT-116 [10]): 7 µM
- IC50 (PC-3): 6 µM
SMILES: O=C(c1c[nH]c2ccccc12)[C@@H]1[C@@H](c2ccc(C(F)(F)F)cc2)[C@@H]2CSCN2[C@@]12C(=O)Nc1ccccc12
